Values joined by “and” are separate entries in the source; they are usually repeats but may differ in a detail not shown here. Equal values may be shown once.
Tested on: 636577-100-R-J1-PDC complex spheroid viability
Assay: Anticancer human tumor 636577-100-R-J1-PDC patient-derived endometrial adenocarcinoma cell line growth inhibition [GQUAD]
Conditions: for viability, T/C: stronger effect = lower value; for IC50: curve of compound
Excerpt: DNA G-quadruplex Stabilizer Agents in Combinations in Complex Spheroids
A high-throughput screen of multi-cell type tumor spheroids was designed to identify active combinations of DNA G-quadruplex stabilizer agents and targeted small molecules. Complex spheroids include a stromal component modeled by human endothelial cells (HUVEC) and fibroblasts modeled by human mesenchymal stem cells (MSCs). The concentration ranges selected for each drug and investigational agent were based upon clinically achievable concentrations if the clinical Cmax of the agent was known.
Compounds. The drugs and investigational agents: pidnarulex (CX-5461; NSC782164), APTO-253 (NSC789042), BRACO-19 (NSC847499), peposertib (NSC802822), ceralasertib (NSC780249), elimusertib (NSC800525), camonsertib (NSC841442), AZD-1390 (NSC803789), olaparib (NSC753686), talazoparib (NSC767125), ART-558 (NSC835418), sotorasib (NSC818433), MRTX-1133 (NSC836407), SN-38 (NSC673596), topotecan (NSC609699), etoposide (NSC141540), doxorubicin (NSC123127), gemcitabine (NSC613327), 5-fluorouracil (NSC19893), paclitaxel (NSC125973), vemurafenib (NSC761431), panobinostat (NSC761190), R-306465 (JNJ-16241199; NSC773264), adavosertib (NSC754352), TP-3654 (NSC805149), carboplatin (NSC241240), KSQ-4279 (NSC840948), and staurosporine (NSC755774) were obtained from the National Cancer Institute (NCI) Developmental Therapeutics Program Chemical Repository (34). The FDA-approved anticancer drug set is available from the NCI Developmental Therapeutics Program. […] The stock solutions were prepared in dimethyl sulfoxide (DMSO, Sigma-Aldrich, St. Louis, MO, cat. D2650) at 800-fold the tested concentration and stored at -70 degrees C prior to their use. All drugs and investigational agents were tested over a range starting from a high concentration at or near the clinical Cmax and decreasing in half-log increments. If the clinical Cmax for an agent had not been determined, the highest concentration tested was 10 microM.
2.3 Cell Culture. All cells were maintained in an incubator at 37 degrees C and 5% CO2 with 95% humidity. The PDC lines were cultured according to standard operating procedures established by the NCI PDMR. All PDCs were thawed and cultured in Matrigel-coated flasks prepared with a working solution of 1X Ham's F-12 nutrient mix, without supplementation (Invitrogen, cat. 11765054), 100 U/mL penicillin-streptomycin (Invitrogen, cat. 15140122), and 2.5% Matrigel (Corning Inc., cat. 354248) for the first three passages. The 857933-349-R-J2-PDC line was cultured in 6C/Colon 1B media, which includes advanced DMEM/F-12 (Thermo Fisher Scientific, cat. 12634028), 10 mM HEPES (Thermo Fisher Scientific, cat. 15630080), 1X GlutaMAX supplement (Thermo Fisher Scientific, cat. 35050061), 0.1 mg/mL primocin (InvivoGen, cat. ant-pm-2), 10% defined fetal bovine serum, heat inactivated (HyClone Laboratories Inc., cat. SH30070.03HI), 50% L-WRN conditioned media (ATCC, cat. CRL-3276), 1.25 mM N-Acetyl-L-cysteine (Sigma-Aldrich, cat. A9165), 10 mM nicotinamide (Sigma-Aldrich, cat. N0636), 1X B-27 supplement (Thermo Fisher Scientific, cat. 17504044), 1X N-2 supplement (Thermo Fisher Scientific, cat. 17502048), 10 microM Y-27632 dihydrochloride (Tocris Bioscience, cat. 1254), and 50 ng/mL human EGF recombinant protein (Thermo Fisher Scientific, cat. PHG0311). The 485176-168-R4-J1-PDC line was cultured in Panc media, which includes all 6C/Colon 1B media components plus 100 ng/mL human FGF-10 (Thermo Fisher Scientific, cat. 100-26), 500 nM SB-431542 (Selleckchem, cat. S1067), and gastrin (Tocris, cat. 3006).
[…]
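Also: viability read after seven days of drug exposure.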
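For viability, T/C in this document: luminescence signal used as a proxy for viable cells; 100% = DMSO vehicle control wells.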

IC50	Structure (SMILES)	viability, T/C (compound 0.0316 µM)	viability, T/C (compound 0.1 µM)	viability, T/C (compound 0.316 µM)	viability, T/C (compound 1 µM)	viability, T/C (compound 3.16 µM)	viability, T/C (compound 10 µM)	viability, T/C (compound 0.000999 µM)	viability, T/C (compound 0.00316 µM)	viability, T/C (compound 0.00999 µM)	viability, T/C (compound 0.0999 µM)
1790 nM and 2020 nM and 839 nM	CC(C)(O)C1CCC(Nc2ccc3ncc(-c4cccc(C(F)(F)F)c4)n3n2)CC1 (stereo unspecified)	102% and 104% and 81.5%	86.4% and 84.5% and 92.3%	93.7% and 109% and 93.8%	67.9% and 78.7% and 42.9%	29.4% and 26.8% and 30.6%	35.9% and 36.4% and 44.3%				
4.63 nM and 4.41 nM and 10.4 nM	Cc1[nH]c2ccccc2c1CCNCc1ccc(/C=C/C(=O)NO)cc1	15.3% and 17.2% and 16.4%		9.32% and 8.7% and 9.38%				80% and 86.3% and 79%	57.6% and 53.8% and 75.6%	34.1% and 38.9% and 51.3%	6.66% and 8% and 7.02%
> 10000 nM and 4970 nM and 5760 nM	C#Cc1c(F)ccc2cc(O)cc(-c3ncc4c(N5CC6CCC(C5)N6)nc(OCC56CCCN5CC(F)C6)nc4c3F)c12 (stereo unspecified)	99.5% and 96.3% and 104%	88.7% and 68.7% and 103%	77.1% and 102% and 113%	83% and 87.9% and 71.9%	66.9% and 56.5% and 70.4%	49.2% and 39.9% and 35.7%				
